Experiments:
[1] = 101 kPa, Liquid; for viscosity: Capillary tube (Ostwald / Ubbelohde) method; for mass density: Vibrating tube method
[2] = xn = mol fraction of the nth substance listed; details: 101 kPa, Liquid; for viscosity: Capillary tube (Ostwald / Ubbelohde) method; for mass density: Vibrating tube method

CC(C)Cc1ccccc1 [(2-methylpropyl)benzene]
[1]
Details	mass density [kg/m3]	viscosity [mPa·s]
303.15 K	844.4	0.905
308.15 K	841.1	0.848
313.15 K	837.6	0.784

CC(C)Cc1ccccc1 [(2-methylpropyl)benzene] + CCCOC=O
[2]
Details	mass density, 303.15 K [kg/m3]	mass density, 308.15 K [kg/m3]	mass density, 313.15 K [kg/m3]	viscosity, 303.15 K [mPa·s]	viscosity, 308.15 K [mPa·s]	viscosity, 313.15 K [mPa·s]
x2 = 0	844.4	841.1	837.6	0.905	0.848	0.784
x2 = 0.1508	848.8	845.2	841.4	0.813	0.771	0.718
x2 = 0.287	853.3	849.5	845.6	0.743	0.706	0.661
x2 = 0.4072	857.9	854	850	0.687	0.654	0.614
x2 = 0.519	862.9	858.7	854.5	0.64	0.61	0.575
x2 = 0.6161	867.7	863.4	859.1	0.602	0.575	0.543
x2 = 0.708	872.9	868.5	864	0.569	0.544	0.515
x2 = 0.7895	878	873.4	868.8	0.54	0.519	0.492
x2 = 0.8656	883.2	878.4	873.7	0.516	0.497	0.471
x2 = 0.9341	888.3	883.4	878.6	0.495	0.476	0.451

c1ccccc1 [benzene]
[1]
Details	mass density [kg/m3]	viscosity [mPa·s]
303.15 K	867.6	0.569
308.15 K	863.2	0.534
313.15 K	858.9	0.497

c1ccccc1 [benzene] + CCCOC=O
[2], x2 = 0
Details	mass density [kg/m3]	viscosity [mPa·s]
303.15 K	867.6	0.569
308.15 K	863.2	0.534
313.15 K	858.9	0.497

CCCCc1ccccc1 [butylbenzene]
[1]
Details	mass density [kg/m3]	viscosity [mPa·s]
303.15 K	851.3	0.901
308.15 K	848	0.844
313.15 K	844.6	0.787

CCCCc1ccccc1 [butylbenzene] + CCCOC=O
[2], x2 = 0
Details	mass density [kg/m3]	viscosity [mPa·s]
303.15 K	851.3	0.901
308.15 K	848	0.844
313.15 K	844.6	0.787

CC(C)c1ccccc1 [isopropylbenzene]
[1]
Details	mass density [kg/m3]	viscosity [mPa·s]
303.15 K	852.7	0.69
308.15 K	849	0.651
313.15 K	845.4	0.611

CC(C)c1ccccc1 [isopropylbenzene] + CCCOC=O
[2], x2 = 0
Details	mass density [kg/m3]	viscosity [mPa·s]
303.15 K	852.7	0.69
308.15 K	849	0.651
313.15 K	845.4	0.611

CCCOC=O [propyl methanoate]
[1]
Details	mass density [kg/m3]	viscosity [mPa·s]
303.15 K	893.5	0.477
308.15 K	888.6	0.456
313.15 K	883.8	0.431

CCCOC=O [propyl methanoate] + CC(C)Cc1ccccc1
[2], x1 = 1
Details	mass density [kg/m3]	viscosity [mPa·s]
303.15 K	893.5	0.477
308.15 K	888.6	0.456
313.15 K	883.8	0.431

CCCOC=O [propyl methanoate] + CC(C)c1ccccc1
[2]
Details	mass density, 303.15 K [kg/m3]	mass density, 308.15 K [kg/m3]	mass density, 313.15 K [kg/m3]	viscosity, 303.15 K [mPa·s]	viscosity, 308.15 K [mPa·s]	viscosity, 313.15 K [mPa·s]
x1 = 0.1349	856	852.1	848.2	0.652	0.617	0.58
x1 = 0.2617	859.5	855.4	851.4	0.617	0.585	0.551
x1 = 0.3812	863.3	859.1	855	0.585	0.557	0.526
x1 = 0.487	867.1	862.7	858.5	0.559	0.533	0.504
x1 = 0.5882	871	866.5	862.2	0.537	0.513	0.485
x1 = 0.6817	875.1	870.4	866	0.517	0.495	0.468
x1 = 0.7675	879.2	874.4	869.8	0.506	0.485	0.459
x1 = 0.8499	883.5	878.6	873.9	0.494	0.474	0.448
x1 = 0.9277	888.1	883	878.2	0.484	0.464	0.439
x1 = 1	893.5	888.6	883.8	0.477	0.456	0.431

CCCOC=O [propyl methanoate] + CCCCc1ccccc1
[2]
Details	mass density, 303.15 K [kg/m3]	mass density, 308.15 K [kg/m3]	mass density, 313.15 K [kg/m3]	viscosity, 303.15 K [mPa·s]	viscosity, 308.15 K [mPa·s]	viscosity, 313.15 K [mPa·s]
x1 = 0.1483	854.7	851	847.3	0.823	0.772	0.723
x1 = 0.2855	858.4	854.6	850.7	0.753	0.71	0.667
x1 = 0.4066	862.2	858.2	854.3	0.696	0.658	0.619
x1 = 0.5164	866.2	862.1	858	0.649	0.616	0.58
x1 = 0.6148	870.3	866	861.8	0.609	0.579	0.546
x1 = 0.7042	874.5	870.1	865.8	0.575	0.547	0.517
x1 = 0.7884	879.1	874.5	869.9	0.545	0.52	0.491
x1 = 0.8642	883.8	879	874.2	0.519	0.497	0.47
x1 = 0.9339	888.6	883.7	878.7	0.498	0.476	0.451
x1 = 1	893.5	888.6	883.8	0.477	0.456	0.431

CCCOC=O [propyl methanoate] + c1ccccc1
[2]
Details	mass density, 303.15 K [kg/m3]	mass density, 308.15 K [kg/m3]	mass density, 313.15 K [kg/m3]	viscosity, 303.15 K [mPa·s]	viscosity, 308.15 K [mPa·s]	viscosity, 313.15 K [mPa·s]
x1 = 0.0918	869.6	865.1	860.6	0.54	0.512	0.479
x1 = 0.1874	871.4	866.8	862.3	0.518	0.49	0.462
x1 = 0.2822	873.6	868.9	864.3	0.504	0.476	0.448
x1 = 0.3785	875.8	871.1	866.5	0.49	0.466	0.437
x1 = 0.4767	878.2	873.4	868.7	0.48	0.456	0.431
x1 = 0.5772	880.6	875.8	871.1	0.474	0.449	0.425
x1 = 0.6802	883.4	878.5	873.7	0.471	0.451	0.426
x1 = 0.7854	886.2	881.3	876.5	0.469	0.448	0.423
x1 = 0.8924	889.4	884.4	879.5	0.467	0.446	0.421
x1 = 1	893.5	888.6	883.8	0.477	0.456	0.431
